In patent publication US20240150839A1, “METHODS FOR PREDICTING RESPONSIVENESS OF PROSTATE CANCER PATIENTS TO PARP INHIBITORS” (Memorial Sloan Kettering Cancer Center, priority 2019, published 2024):

What was measured:
Type in all cases: cell-based, human
[1] = system: RB1 knockdown LNCaP cells; assay: MTT cell growth with PARP inhibitors; settings: RB1 knockdown vs control LNCaP cells; olaparib 3 μM, talazoparib 0.005 μM (FIG. 2E)
Procedure: (§1) Scr-CRISPR and BRCA2-CRISPR2 cells were also transfected with non-targeting shRNA (scr-Sh) for control of shRNA. RHoGDI served as the loading control. […] Equivalent volume of DMSO was used as placebo treatment. Cell growth was measured by MTT assay; SD, p-values were determined by Student's t-test. […] FIG. 2C (2nd and 3rd rows) show the immunofluorescence (400× magnification) of F-actin filament stained with phalloidin in indicated CRISPR/shRNA-infected LNCaP cells. Nuclei were stained with DAPI (blue). […] 5×10^3 indicated cells were plated on the top of Boyden chamber (see Example 1) in serum-free media; 10% serum in the bottom chamber was used as chemo-attractant. After 48 hours, cells in the lower side of the chamber were fixed, stained, and photographed (100× magnification). […] Nuclei were stained with DAPI (blue). […] The graphs show cell growth measured by MTT assay (±SD); P-values determined by Student's t-test. […] RNA sequencing was analyzed by Partek.
(§2) To generate BRCA2-RB1 knockout-knockdown LNCaP cells, parental LNCaP cells were first infected with lentivirus containing BRCA2 gRNA or scr gRNA. Pooled population of the stable cells were established by puromycin selection and analyzed by western blot and qPCR. BRCA2-knockout or scr LNCaP cells were infected with lentivirus containing RB1 shRNA followed by hygromycin selection. BRCA2-knockout or scr (gRNA) LNCaP cells also infected with lentiviral non-targeting shRNA (scr-shRNA) were used as control. Cells within 4-10 passages after stable selection were used for the following experiments.
(§3) Cell Proliferation Assay by MTT, BrdU and Crystal Violet. For MTT assay, cells were plated at 2.5×10^3 per well in 96-well plates in complete media (10% FBS) or media supplemented with 10% charcoal-stripped serum. Cells were either treated with DMSO or with indicated inhibitors. After indicated times, cells were incubated in 0.5 mg/mL MTT (Invitrogen) for 1 hour at 37° C. MTT crystals were dissolved in isopropanol and absorbance was measured in a BioTek plate reader at […] and represented graphically.

[2] = system: LNCaP-BRCA2-RB1 cells; assay: MTT cell growth with PARP inhibitors; settings: LNCaP-BRCA2-RB1 vs BRCA2-null LNCaP; olaparib 3 μM, talazoparib 0.005 μM (FIG. 2E)
Procedure: as §1, §2, §3

[3] = system: 22RV1 cells; assay: MTT cell growth with PARPi or cisplatin; settings: 22RV1, BRCA2 T3033Nfs*11, RB1-wt; cisplatin 500 nM, talazoparib 5 nM, 6 days (FIG. 11D)
Procedure: as §3, with “The ploidy of each cell line is indicated. […] Equivalent volume of DMSO was used as placebo treatment. Cell growth was measured by MTT assay (see Example 1); SD, each point indicates the MTT count of each well of 96-well plate, P-values determined by Student's t-test. **P<0.01, ****P<0.0001. […] Cell Proliferation” for “Cell Proliferation”

[4] = system: PC3M cells; assay: MTT cell growth with PARPi or cisplatin; settings: talazoparib 5 nM, 6 days, P<0.0001 (FIG. 11D)
Procedure: as §3, with “The ploidy of each cell line is indicated. […] Equivalent volume of DMSO was used as placebo treatment. Cell growth was measured by MTT assay (see Example 1); SD, each point indicates the MTT count of each well of 96-well plate, P-values determined by Student's t-test. **P<0.01, ****P<0.0001. […] Cell Proliferation” for “Cell Proliferation”

[5] = system: MSK-PCa3 organoid; assay: MTT growth of mCRPC organoids with PARPi; settings: compared to benign organoid; 3 days (FIG. 6E)
Excerpt: (§4) Near-diploid benign prostate organoid is used as a control. […] GAPDH served as the loading control. […] The graphs show cell growth measured by MTT assay (±SD); P-trends determined by 2-way ANOVA.
(§5) Cell Culture. Human prostate cancer cells LNCaP, 22RV1, DU145, PC3, and VCaP were obtained from ATCC (Manassas, VA). LNCaP-C42 cells were obtained from VitroMed (Burlington, NC). The LNCaP-Abl cell line, E006AA-T cells, PC3M LAPC4 cell line were obtained. These cells were maintained in 10% FBS (LNCaP, LNCaP-C42, LAPC4, VCaP, 22RV1, DU145, PC3, PC3M, and E006AA) or 10% charcoal-stripped serum (LNCaP-Abl) supplemented with 2 mM of L-glutamine and 1×antibiotic/antimycotic (Gemini Bio-Products, Sacramento, CA) at 37° C. in 5% CO2. Human prostate epithelial cell RWPE1 was obtained from ATCC and cultured in keratinocyte serum-free medium (Thermo Fisher Scientific, Waltham, MA) at 37° C. in 5% CO2. Cells were authenticated by human short tandem repeat profiling at the MSK Integrated Genomics Operation Core. Patient-derived human prostate cancer organoids were cultured as described. Gao et al., Cell 159:176-87 (2014).
as §3

[6] = system: MSK-PCa1 organoid; assay: MTT growth of mCRPC organoids with PARPi; settings: compared to benign organoid; 3 days (FIG. 6E)
Excerpt: as §4, §5, §3

[7] = system: BRCA2-null LNCaP cells; assay: MTT cell growth of BRCA2 CRISPR-edited LNCaP cells with PARP inhibitors or cisplatin; settings: BRCA2 knockout LNCaP vs control gRNA (scr) cells; complete medium, 6 days (FIG. 7C)
Procedure: Cells infected with scrambled (scr) gRNA were used as control. Equal amount of proteins was loaded in WedgeWell 6% gel and western blot was performed. ˜400 kDa BRCA2 band is indicated by arrow. GAPDH served as loading controls for western blot and qPCR. […] Genotypes are detected by PCR amplification followed by being treated with T7 endonuclease. Wt and mutant BRCA2 are indicated by red and green arrows, respectively. […] Equivalent volume of DMSO was used as placebo treatment. Cell growth was measured by MTT assay (see Example 1); SD, P-values determined by Student's t-test. *P<0.05, **P<0.01, ***P<0.001. FIGS. 7D-7E show the growth curve (FIG. 7D) and a bar graph (FIG. 7E) representing the cell growth of LNCaP BRCA2 CRISPR-edited and non-targeting control gRNA (scr) infected cells in complete medium supplemented with enzalutamide (ENZ; indicated concentration) for 7 days or charcoal-stripped medium (CSS) for 5 days, respectively. Equivalent volume of DMSO was used as placebo treatment. Cell growth was measured by crystal violet staining assay (see Example 1) (±SD); P-values determined by Student's t-test. […] Equivalent volume of DMSO was used as placebo treatment. Cell growth was measured by MTT assay (see Example 1) (±SD); P-values determined by Student's t-test. […] Total RNA was isolated, and BRCA2 mRNA was analyzed by qPCR. […] Cell growth was measured by MTT assay; SD, P-values determined by Student's t-test.
To generate BRCA2 knockout RWPE1 cells, BRCA2 gRNA2 was cloned into LentiCRISPRv2-GFP backbone which constitutively expresses Cas9 and GFP. Lentiviral infected cells were selected by FACS sorting for GFP positive cells (twice) and analyzed by western blot. […] Loss of BRCA2 in the pooled populations of LNCaP cells was analyzed by western blot using BRCA2-specific antibodies and this pooled population of cells was used for the following experiments. […]
Cell Proliferation Assay by MTT, BrdU and Crystal Violet. […] MTT crystals were dissolved in isopropanol and absorbance was measured in a BioTek plate reader at […] and represented graphically.

Cn1ncnc1[C@H]1c2n[nH]c(=O)c3cc(F)cc(c23)N[C@@H]1c1ccc(F)cc1 [talazoparib]
inhibitory effect on cell growth (MTT) [1]: could not be detected
cell growth inhibition (MTT) [2]: more cell growth inhibition
sensitivity (cell growth, MTT) [3]: modest sensitivity
growth inhibition compared to olaparib (2.5 μM) [4]: more growth inhibition
organoid growth (MTT) [5]: growth reduction
organoid growth (MTT) [6]: growth reduction
sensitivity (cell growth, MTT) [7]: more sensitivity
